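Growth conditions: 96-well plates. Treatment: test compound, 48 hours, 5 concentrations. Analysis: linear interpolation between bracketing concentrations; unreached endpoints set to highest concentration. Here, GI50 denotes the concentration required for 50% inhibition of growth. TGI is the concentration that stops growth completely.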
Experiments:
Assay in all cases: NCI tumour cell line growth inhibition, 48 h
MOLT-4 leukemia = system: MOLT-4 leukemia
SK-MEL-28 melanoma = system: SK-MEL-28 melanoma
OVCAR-4 ovarian = system: OVCAR-4 ovarian
SW-620 colon = system: SW-620 colon
OVCAR-3 ovarian = system: OVCAR-3 ovarian
HS 578T breast = system: HS 578T breast
EKVX NSCLC = system: EKVX NSCLC
SF-268 CNS = system: SF-268 CNS
SF-295 CNS = system: SF-295 CNS
OVCAR-8 ovarian = system: OVCAR-8 ovarian
HOP-92 NSCLC = system: HOP-92 NSCLC
CCRF-CEM leukemia = system: CCRF-CEM leukemia
MCF7 breast = system: MCF7 breast
HT29 colon = system: HT29 colon
MDA-MB-435 = system: MDA-MB-435
786-0 renal = system: 786-0 renal
NCI-H23 lung = system: NCI-H23 lung
SNB-75 CNS = system: SNB-75 CNS
SNB-19 CNS = system: SNB-19 CNS
COLO 205 colon = system: COLO 205 colon
HCT-116 colon = system: HCT-116 colon
NCI-H522 lung = system: NCI-H522 lung
M14 melanoma = system: M14 melanoma
SK-OV-3 ovarian = system: SK-OV-3 ovarian
UACC-62 melanoma = system: UACC-62 melanoma
HL-60(TB) leukemia = system: HL-60(TB) leukemia
HOP-62 NSCLC = system: HOP-62 NSCLC
MDA-MB-231 breast = system: MDA-MB-231 breast
SK-MEL-5 melanoma = system: SK-MEL-5 melanoma
U251 CNS = system: U251 CNS
UACC-257 melanoma = system: UACC-257 melanoma
T-47D breast = system: T-47D breast
IGROV1 ovarian = system: IGROV1 ovarian
SK-MEL-2 melanoma = system: SK-MEL-2 melanoma
SF-539 CNS = system: SF-539 CNS
CAKI-1 renal = system: CAKI-1 renal
NCI-H460 lung = system: NCI-H460 lung
A498 renal = system: A498 renal
ACHN renal = system: ACHN renal
OVCAR-5 ovarian = system: OVCAR-5 ovarian
BT-549 breast = system: BT-549 breast
UO-31 renal = system: UO-31 renal
HCC-2998 colon = system: HCC-2998 colon
LOX IMVI melanoma = system: LOX IMVI melanoma
A549 NSCLC = system: A549 NSCLC
DU-145 prostate = system: DU-145 prostate
KM12 colon = system: KM12 colon
NCI/ADR-RES ovarian = system: NCI/ADR-RES ovarian
RPMI-8226 leukemia = system: RPMI-8226 leukemia
HCT-15 colon = system: HCT-15 colon
MALME-3M melanoma = system: MALME-3M melanoma
SN12C renal = system: SN12C renal
TK-10 renal = system: TK-10 renal
NCI-H226 lung = system: NCI-H226 lung
PC-3 prostate = system: PC-3 prostate
RXF 393 renal = system: RXF 393 renal
K-562 leukemia = system: K-562 leukemia
SR leukemia = system: SR leukemia

`COC(=O)c1ccc2[nH]c(O)c(C(=Nc3ccc(N(C)C(=O)CN4CCN(C)CC4)cc3)c3cccc(OC)c3)c2c1` gave a GI50 (MOLT-4 leukemia) of 392 nM, a TGI (MOLT-4 leukemia) of 3260 nM and a GI50 (SK-MEL-28 melanoma) of 1710 nM. It also gave a TGI (SK-MEL-28 melanoma) of 3770 nM, a GI50 (OVCAR-4 ovarian) of 960 nM and a TGI (OVCAR-4 ovarian) of 2840 nM. It also gave a GI50 (SW-620 colon) of 429 nM, a TGI (SW-620 colon) of 4950 nM and a GI50 (OVCAR-3 ovarian) of 960 nM. The TGI (OVCAR-3 ovarian) was 2570 nM, the GI50 (HS 578T breast) was 213 nM and the TGI (HS 578T breast) was 4130 nM. For the same compound, the GI50 (EKVX NSCLC) was 2040 nM, the TGI (EKVX NSCLC) was 6770 nM and the GI50 (SF-268 CNS) was 1480 nM. It also gave a TGI (SF-268 CNS) of 4080 nM, a GI50 (SF-295 CNS) of 1120 nM and a TGI (SF-295 CNS) of 2630 nM. The GI50 (OVCAR-8 ovarian) was 1220 nM, the TGI (OVCAR-8 ovarian) was 9910 nM and the GI50 (HOP-92 NSCLC) was 2980 nM. The TGI (HOP-92 NSCLC) was 10900 nM, the GI50 (CCRF-CEM leukemia) was 447 nM and the TGI (CCRF-CEM leukemia) was 6830 nM. For the same compound, the GI50 (MCF7 breast) was 353 nM, the TGI (MCF7 breast) was 1930 nM and the GI50 (HT29 colon) was 890 nM. It also gave a TGI (HT29 colon) of 13100 nM, a GI50 (MDA-MB-435) of 1480 nM and a TGI (MDA-MB-435) of 3860 nM. The GI50 (786-0 renal) was 825 nM, the TGI (786-0 renal) was 2380 nM and the GI50 (NCI-H23 lung) was 1050 nM. The TGI (NCI-H23 lung) was 3480 nM, the GI50 (SNB-75 CNS) was 112 nM and the TGI (SNB-75 CNS) was 1780 nM. For the same compound, the GI50 (SNB-19 CNS) was 1640 nM, the TGI (SNB-19 CNS) was 8400 nM and the GI50 (COLO 205 colon) was 395 nM. It also gave a TGI (COLO 205 colon) of 1800 nM, a GI50 (HCT-116 colon) of 210 nM and a TGI (HCT-116 colon) of 4660 nM. For the same compound, the GI50 (NCI-H522 lung) was 1030 nM, the TGI (NCI-H522 lung) was 3890 nM and the GI50 (M14 melanoma) was 921 nM. The TGI (M14 melanoma) was 2410 nM, the GI50 (SK-OV-3 ovarian) was 198 nM and the TGI (SK-OV-3 ovarian) was 1880 nM. It also gave a GI50 (UACC-62 melanoma) of 2140 nM, a TGI (UACC-62 melanoma) of 4520 nM and a GI50 (HL-60(TB) leukemia) of 583 nM. For the same compound, the TGI (HL-60(TB) leukemia) was 2510 nM, the GI50 (HOP-62 NSCLC) was 1210 nM and the TGI (HOP-62 NSCLC) was 4780 nM. It also gave a GI50 (MDA-MB-231 breast) of 1310 nM, a TGI (MDA-MB-231 breast) of 3270 nM and a GI50 (SK-MEL-5 melanoma) of 1430 nM. For the same compound, the TGI (SK-MEL-5 melanoma) was 2780 nM, the GI50 (U251 CNS) was 1150 nM and the TGI (U251 CNS) was 3000 nM. The GI50 (UACC-257 melanoma) was 2010 nM, the TGI (UACC-257 melanoma) was 4640 nM and the GI50 (T-47D breast) was 1280 nM. It also gave a TGI (T-47D breast) of 9340 nM, a GI50 (IGROV1 ovarian) of 191 nM and a TGI (IGROV1 ovarian) of 2190 nM. It also gave a GI50 (SK-MEL-2 melanoma) of 1890 nM, a TGI (SK-MEL-2 melanoma) of 4510 nM and a GI50 (SF-539 CNS) of 463 nM. It also gave a TGI (SF-539 CNS) of 1690 nM, a GI50 (CAKI-1 renal) of 373 nM and a TGI (CAKI-1 renal) of 3380 nM. It also gave a GI50 (NCI-H460 lung) of 1410 nM, a TGI (NCI-H460 lung) of 3440 nM and a GI50 (A498 renal) of 1260 nM. For the same compound, the TGI (A498 renal) was 2610 nM, the GI50 (ACHN renal) was 2140 nM and the TGI (ACHN renal) was 7990 nM. It also gave a GI50 (OVCAR-5 ovarian) of 2290 nM, a TGI (OVCAR-5 ovarian) of 5460 nM and a GI50 (BT-549 breast) of 1390 nM. The TGI (BT-549 breast) was 3470 nM, the GI50 (UO-31 renal) was 1540 nM and the TGI (UO-31 renal) was 4050 nM. It also gave a GI50 (HCC-2998 colon) of 1650 nM, a TGI (HCC-2998 colon) of 4980 nM and a GI50 (LOX IMVI melanoma) of 654 nM. It also gave a TGI (LOX IMVI melanoma) of 2300 nM, a GI50 (A549 NSCLC) of 1390 nM and a TGI (A549 NSCLC) of 6420 nM. It also gave a GI50 (DU-145 prostate) of 1890 nM, a TGI (DU-145 prostate) of 9320 nM and a GI50 (KM12 colon) of 41.9 nM. For the same compound, the TGI (KM12 colon) was 4490 nM, the GI50 (NCI/ADR-RES ovarian) was 12400 nM and the TGI (NCI/ADR-RES ovarian) was 34000 nM. For the same compound, the GI50 (RPMI-8226 leukemia) was 1020 nM, the TGI (RPMI-8226 leukemia) was 3550 nM and the GI50 (HCT-15 colon) was 1900 nM. The TGI (HCT-15 colon) was 7040 nM, the GI50 (MALME-3M melanoma) was 1490 nM and the TGI (MALME-3M melanoma) was 2960 nM. It also gave a GI50 (SN12C renal) of 346 nM, a TGI (SN12C renal) of 10800 nM and a GI50 (TK-10 renal) of 1610 nM. For the same compound, the TGI (TK-10 renal) was 3780 nM, the GI50 (NCI-H226 lung) was 1080 nM and the TGI (NCI-H226 lung) was 5930 nM. For the same compound, the GI50 (PC-3 prostate) was 631 nM, the TGI (PC-3 prostate) was 5870 nM and the GI50 (RXF 393 renal) was 549 nM. It also gave a TGI (RXF 393 renal) of 1870 nM, a GI50 (K-562 leukemia) of 107 nM and a TGI (K-562 leukemia) of 4370 nM. It also gave a GI50 (SR leukemia) of 231 nM and a TGI (SR leukemia) of 4520 nM.
